Test results as given in PMC6269433, “Biocatalytic production of adiponitrile and related aliphatic linear α,ω-dinitriles” (Nature Communications, 2018).

How the values were obtained:
Assay type in all cases: cell-based
OxdA [1] = target: T1, OxdA (Pseudomonas chlororaphis, UniProt Q7WSJ4); test: whole-cell dehydration to adiponitrile, GC; conditions: E. coli resting cells, 50 mM potassium phosphate pH 7.0, 30 °C, argon, with or without 20% DMSO; activity only per bio wet weight
T1 construct: recombinant in E. coli, resting whole cells; plasmid details only in supplement; ferrous heme enzyme
T1 sequence (Q7WSJ4 1-352): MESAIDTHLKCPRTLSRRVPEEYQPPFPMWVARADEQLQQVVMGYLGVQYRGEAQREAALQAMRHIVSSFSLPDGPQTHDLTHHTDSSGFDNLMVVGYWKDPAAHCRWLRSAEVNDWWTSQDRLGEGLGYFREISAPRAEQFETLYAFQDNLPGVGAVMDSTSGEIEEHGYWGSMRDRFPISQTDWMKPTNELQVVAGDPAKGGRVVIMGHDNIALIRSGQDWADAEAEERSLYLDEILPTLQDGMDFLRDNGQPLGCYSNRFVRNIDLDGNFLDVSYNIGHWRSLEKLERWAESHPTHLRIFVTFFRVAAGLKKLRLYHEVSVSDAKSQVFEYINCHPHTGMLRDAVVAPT

OxdB [2] = target: T2, OxdB (Bacillus sp. OxB-1, UniProt P82604); test: whole-cell dehydration to adiponitrile, GC; conditions: E. coli resting cells, 50 mM potassium phosphate pH 7.0, 30 °C, argon, with or without 20% DMSO; activity only per bio wet weight
T2 construct: gene oxd; recombinant in E. coli, resting whole cells; plasmid details only in supplement; ferrous heme enzyme
T2 sequence (P82604 2-351): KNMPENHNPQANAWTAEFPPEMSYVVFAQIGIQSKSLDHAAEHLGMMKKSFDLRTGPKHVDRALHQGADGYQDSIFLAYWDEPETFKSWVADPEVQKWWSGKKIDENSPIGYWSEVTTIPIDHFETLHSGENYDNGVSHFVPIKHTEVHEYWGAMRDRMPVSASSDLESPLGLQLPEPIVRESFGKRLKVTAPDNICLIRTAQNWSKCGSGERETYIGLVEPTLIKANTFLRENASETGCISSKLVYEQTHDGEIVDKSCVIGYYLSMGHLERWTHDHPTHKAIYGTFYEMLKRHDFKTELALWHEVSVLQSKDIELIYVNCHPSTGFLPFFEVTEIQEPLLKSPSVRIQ

OxdA [3] = target: T1, OxdA; test: whole-cell dehydration to the dinitrile, analytical scale; conditions: E. coli resting cells; substrate 3.0-75 mM range; activity only per bio wet weight
OxdB [4] = target: T2, OxdB; test: as above; conditions: E. coli resting cells; substrate 3.0-75 mM range; activity only per bio wet weight

SMILES	whole-cell dehydration to adiponitrile, GC (OxdA [1])	whole-cell dehydration to adiponitrile, GC (OxdB [2])	whole-cell dehydration to the dinitrile, analytical scale (OxdA [3])	whole-cell dehydration to the dinitrile, analytical scale (OxdB [4])
ON=CCCCCC=NO [1d, adipaldehyde dioxime]	the C6-C10-dialdoximes (1d-h) were converted by both Oxds completely with excellent efficiency	the C6-C10-dialdoximes (1d-h) were converted by both Oxds completely with excellent efficiency	–	–
ON=CCCCCCCC=NO [1f, C8-dialdoxime]	–	–	the C6-C10-dialdoximes (1d-h) were converted by both Oxds completely with excellent efficiency	the C6-C10-dialdoximes (1d-h) were converted by both Oxds completely with excellent efficiency
